14 compounds from US10357036B2, “Compounds for controlling arthropods” (priority 2015, dated 2019) can be followed below.

For assay [1], the system named is Ctenocephalides felis. Nature of the assay: Ctenocephalides felis in vitro contact test with adult cat fleas. The class given is in vivo. The note with it: application rate 5 μg/cm^2 (=500 g/ha); after 48 h; dead or moribund fleas. The method, boiled down: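 Glass tubes were coated with compound in acetone (900 ppm solution gives 5 μg/cm²), dried, then loaded with 5–10 adult cat fleas. Held horizontal at room temperature and ambient humidity for 48 h. Efficacy is the % of fleas dead or moribund (motionless or uncoordinated after knock-down).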

The test system of the next assay is Rhipicephalus sanguineus. Nature of the assay: Rhipicephalus sanguineus in vitro contact test with adult brown dog ticks. The class given is in vivo. To be noted: after 48 h. The gist of the method:
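Adult Rhipicephalus sanguineus (5-10 per tube) held in glass tubes coated with compound from acetone solution, 900 ppm giving 5 μg/cm^2, in the dark at room temperature. After 48 h ticks put on a 45-50° C hotplate up to 5 min; motionless or uncoordinated ticks scored dead/moribund as % efficacy.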

Assay [2] deals with cattle ticks (Boophilus microplus) Parkhurst strain, SP-resistant. Nature of the assay: Boophilus microplus dip test. The class given is in vivo. To be noted: 100 ppm; assessed after 7 days. Here is the method:
• Test animals: cattle ticks (Boophilus microplus) Parkhurst strain, SP-resistant • Solvent: dimethyl sulfoxide
10 mg of active ingredient are dissolved in 0.5 ml of dimethyl sulfoxide. To produce a suitable formulation, the active ingredient solution is diluted with water to the concentration desired in each case.
This active ingredient formulation is pipetted into tubes. 8-10 engorged adult female cattle ticks (Boophilus microplus) are transferred into a further tube with holes. The tube is immersed into the active ingredient formulation, and all the ticks are completely wetted. After the liquid has run out, the ticks are transferred on filter discs into plastic dishes and stored in a climate-controlled room.
Efficacy is assessed after 7 days by laying of fertile eggs. Eggs which are not visibly fertile are stored in a climate-controlled cabinet until the larvae hatch after about 42 days. An efficacy of 100% means that none of the ticks has laid any fertile eggs; 0% means that all the eggs are fertile.

The next assay deals with Boophilus microplus. Nature of the assay: Boophilus microplus injection test. The note with it: 20 μg/animal; assessed after 7 days. In kind it is in vivo. Here is the method: (§1) • Solvent: dimethyl sulfoxide
1 μl of the active ingredient solution is injected into the abdomen of 5 engorged adult female cattle ticks (Boophilus microplus). The animals are transferred into dishes and kept in a climate-controlled room.

Assay [3] deals with Ctenocephalides felis. Nature of the assay: Ctenocephalides felis oral test. The class given is in vivo. The note with it: 100 ppm in citrated cattle blood; after 2 days.
The subject of another assay is Musca domestica. Nature of the assay: Musca domestica test. In kind it is in vivo. The note with it: 100 ppm; adult houseflies; after 2 days. The protocol: as §1
To produce a suitable active ingredient formulation, 10 mg of active ingredient are mixed with 0.5 ml of dimethyl sulfoxide, and the concentrate is diluted with water to the desired concentration.
Vessels containing a sponge treated with sugar solution and the active ingredient formulation of the desired concentration are populated with 10 adult houseflies (Musca domestica).

The subject of another assay is Myzus persicae. Nature of the assay: Myzus persicae spray test (Chinese cabbage leaf discs). In kind it is in vivo. The note with it: 100 g/ha; after 6 days. The protocol:
(§2) After 6 days, the efficacy in % is determined.

Another assay concerns Spodoptera frugiperda. Nature of the assay: Spodoptera frugiperda spray test. The class given is in vivo. The note with it: 100 g/ha; after 7 days.
A further assay has as its system Tetranychus urticae. Nature of the assay: Tetranychus urticae spray test, OP-resistant (bean leaf discs). The class given is in vivo. The note with it: 100 g/ha; after 6 days. Here is the method: as §2
A further assay relates to Phaedon cochleariae. Nature of the assay: Phaedon cochleariae spray test. To be noted: 100 g/ha; after 7 days.
Where [4] appears, read: application rate 5 μg/cm^2 (=500 g/ha), dead or moribund ticks.

SMILES strings stand for the structures.

On to `CCC(=O)NCc1cc(-c2cnn(-c3c(Cl)cc(C(F)(C(F)(F)F)C(F)(F)F)cc3C(F)F)c2)ccc1F` [Ia-23], for which the efficacy amounted to 100% with Ctenocephalides felis [1]; 100% in the assay on Rhipicephalus sanguineus (setting [4]); 90% in the assay on Myzus persicae; 100% with Spodoptera frugiperda; 100% with Tetranychus urticae; 100% in the assay with Phaedon cochleariae. For the same compound, the “efficacy (laying of fertile eggs)” value (in assay [2]; in the assay with Boophilus microplus) was 100% throughout. For the same compound, the “efficacy (rate of extermination)” value in the assay on Ctenocephalides felis [3] and in the assay with Musca domestica was 100% throughout.

Regarding `CC(=O)NCc1cc(-c2cnn(-c3c(C)cc(C(F)(C(F)(F)F)C(F)(F)F)cc3Cl)c2)ccc1F` [Ia-65], the efficacy amounted to 100% in the assay on Ctenocephalides felis [1]; 100% in the assay with Rhipicephalus sanguineus (setting [4]); 90% in the assay with Myzus persicae; 100% in the assay on Spodoptera frugiperda; 100% with Tetranychus urticae; 100% in the assay on Phaedon cochleariae. For the same compound, the “efficacy (laying of fertile eggs)” value (in assay [2]; in the assay on Boophilus microplus) was 100% each time. Also, the “efficacy (rate of extermination)” value in the assay on Ctenocephalides felis [3] and in the assay with Musca domestica was 100% in each case.

Turning to `CC(=O)NCc1cc(-c2cnn(-c3c(Cl)cc(C(F)(C(F)(F)F)C(F)(F)F)cc3Cl)c2)ccc1C` [Ia-90], the efficacy in the assay with Ctenocephalides felis [1] is reported as 100%; in the assay with Rhipicephalus sanguineus (setting [4]), 100%; in the assay on Myzus persicae, 90%; with Spodoptera frugiperda, 100%; in the assay with Tetranychus urticae it was 100%; in the assay on Phaedon cochleariae, 100%. Besides, the “efficacy (laying of fertile eggs)” value (in assay [2]; in the assay with Boophilus microplus) was 100% in each case. For the same compound, the “efficacy (rate of extermination)” value in the assay with Ctenocephalides felis [3] and with Musca domestica was 100% throughout.

As for `CC(=O)NCc1c(F)ccc(-c2cnn(-c3c(Cl)cc(C(F)(C(F)(F)F)C(F)(F)F)cc3C(F)F)c2)c1F` [Ia-142], the efficacy with Ctenocephalides felis [1] is listed as 100%; in the assay on Rhipicephalus sanguineus (setting [4]), 80%; in the assay on Myzus persicae, 90%; in the assay on Spodoptera frugiperda, 100%; in the assay on Tetranychus urticae it was 100%; in the assay on Phaedon cochleariae it was 100%. For the same compound, the “efficacy (laying of fertile eggs)” value was determined as 80% in assay [2] and 100% in the assay with Boophilus microplus. Further, the “efficacy (rate of extermination)” value in the assay with Ctenocephalides felis [3] and with Musca domestica was 100% in each case.

As for `CC(=O)NCc1cc(-c2cnn(-c3c(Cl)cc(C(F)(C(F)(F)F)C(F)(F)F)cc3C(F)F)c2)cnc1Cl` [Ia-145], the “efficacy (laying of fertile eggs)” value (in assay [2]; in the assay with Boophilus microplus) was 100% in each case. In addition, the “efficacy (rate of extermination)” value with Ctenocephalides felis [3] and in the assay with Musca domestica was 100% each time. The efficacy came out at 90% with Myzus persicae, 100% with Spodoptera frugiperda, 100% in the assay with Tetranychus urticae and 100% in the assay with Phaedon cochleariae.

Turning to `CCC(=O)NCc1cc(-c2cnn(-c3c(C)cc(C(F)(C(F)(F)F)C(F)(F)F)cc3Cl)c2)ccc1F` [Ia-66], the efficacy with Ctenocephalides felis [1] is on record as 100%; in the assay with Rhipicephalus sanguineus (setting [4]), 100%; with Myzus persicae, 70%; in the assay on Spodoptera frugiperda, 100%; in the assay on Tetranychus urticae it was 100%; with Phaedon cochleariae it was 100%. Further, the “efficacy (laying of fertile eggs)” value is recorded as 95% in assay [2] and 100% in the assay on Boophilus microplus. Also, the “efficacy (rate of extermination)” value with Ctenocephalides felis [3] and with Musca domestica was 100% throughout.

Regarding `CC(=O)NCc1cc(-c2cnn(-c3c(C)cc(C(F)(C(F)(F)F)C(F)(F)F)cc3Cl)c2)ccc1C` [Ia-75], the efficacy with Ctenocephalides felis [1], in the assay with Rhipicephalus sanguineus (setting [4]), in the assay on Spodoptera frugiperda, in the assay with Tetranychus urticae and with Phaedon cochleariae was 100% throughout. In addition, the “efficacy (laying of fertile eggs)” value (in assay [2]; with Boophilus microplus) was 100% throughout. Besides, the “efficacy (rate of extermination)” value with Ctenocephalides felis [3] and with Musca domestica was 100% in each case.

Consider `CCC(=O)NCc1cc(-c2cnn(-c3c(C)cc(C(F)(C(F)(F)F)C(F)(F)F)cc3C)c2)ccc1Cl` [Ia-93], for which the efficacy in the assay on Ctenocephalides felis [1], in the assay with Rhipicephalus sanguineus (setting [4]), in the assay with Spodoptera frugiperda, in the assay with Tetranychus urticae and in the assay with Phaedon cochleariae was 100% each time. Also, the “efficacy (laying of fertile eggs)” value in assay [2] is 95%; in the assay on Boophilus microplus it was 100%. For the same compound, the “efficacy (rate of extermination)” value in the assay on Ctenocephalides felis [3] and in the assay with Musca domestica was 100% each time.

Regarding `CC(=O)NCc1cc(-c2cnn(-c3c(Cl)cc(C(F)(C(F)(F)F)C(F)(F)F)cc3C#N)c2)ccc1C` [Ia-96], the efficacy in the assay with Rhipicephalus sanguineus (application rate 1 μg/cm^2 (=100 g/ha)), in the assay on Spodoptera frugiperda and in the assay with Tetranychus urticae was 100% throughout. Moreover, the entries for the “efficacy (laying of fertile eggs)” value (in assay [2]; with Boophilus microplus) were 90% and 100%, respectively. In addition, in the assay with Ctenocephalides felis [3], the “efficacy (rate of extermination)” value is reported as 100%.

Turning to `CC(=O)NCc1cc(-c2cnn(-c3c(Cl)cc(C(F)(C(F)(F)F)C(F)(F)F)cc3C(F)(F)F)c2)ccc1C` [Ia-79], the efficacy was 100% in the assay with Ctenocephalides felis [1]; 100% in the assay with Rhipicephalus sanguineus (setting [4]); 90% in the assay on Myzus persicae; 100% in the assay with Spodoptera frugiperda; 100% in the assay with Tetranychus urticae. Moreover, the “efficacy (laying of fertile eggs)” value (in [2]; with Boophilus microplus) was 100% throughout. Further, the “efficacy (rate of extermination)” value in the assay with Ctenocephalides felis [3] and in the assay on Musca domestica was 100% in each case.

With `CC(=O)NCc1cc(-c2cnn(-c3c(Cl)cc(C(F)(C(F)(F)F)C(F)(F)F)cc3C(F)F)c2)ccc1Cl` [Ia-106], the “efficacy (laying of fertile eggs)” value (in [2]; with Boophilus microplus) was 100% throughout. Besides, the “efficacy (rate of extermination)” value in the assay with Ctenocephalides felis [3] and in the assay with Musca domestica was 100% throughout. Also, the efficacy with Spodoptera frugiperda, in the assay with Tetranychus urticae and in the assay on Phaedon cochleariae was 100% each time.

Turning to `CC(=O)NCc1cc(-c2cnn(-c3c(C)cc(C(F)(C(F)(F)F)C(F)(F)F)cc3Cl)c2)ccc1Cl` [Ia-84], the “efficacy (laying of fertile eggs)” value (in [2]; in the assay with Boophilus microplus) was 100% each time. Further, the “efficacy (rate of extermination)” value with Ctenocephalides felis [3] and with Musca domestica was 100% each time. In addition, the efficacy in the assay with Myzus persicae is recorded as 90%; in the assay on Spodoptera frugiperda, 100%; in the assay with Tetranychus urticae, 100%; in the assay with Phaedon cochleariae, 100%.

`CCC(=O)NCc1cc(-c2cnn(-c3c(Cl)cc(C(F)(C(F)(F)F)C(F)(F)F)cc3C(F)F)c2)ccc1Cl` [Ia-115]: the efficacy in the assay on Ctenocephalides felis [1], with Rhipicephalus sanguineus (setting [4]), in the assay with Spodoptera frugiperda, in the assay on Tetranychus urticae and with Phaedon cochleariae was 100% throughout. For the same compound, the “efficacy (laying of fertile eggs)” value (in assay [2]; with Boophilus microplus) was 100% each time. For the same compound, the “efficacy (rate of extermination)” value with Ctenocephalides felis [3] and in the assay with Musca domestica was 100% in each case.

Consider `CCC(=O)NCc1cc(-c2cnn(-c3c(Cl)cc(C(F)(C(F)(F)F)C(F)(F)F)cc3C(F)(F)F)c2)ccc1F` [Ia-83], for which the efficacy with Ctenocephalides felis [1] was determined as 100%; in the assay with Rhipicephalus sanguineus (setting [4]), 100%; with Spodoptera frugiperda, 100%; with Tetranychus urticae, 90%; with Phaedon cochleariae, 100%. In addition, the “efficacy (laying of fertile eggs)” value is on record as 80% in assay [2] and 100% in the assay with Boophilus microplus. Further, the “efficacy (rate of extermination)” value in the assay on Ctenocephalides felis [3] and with Musca domestica was 100% each time.
